Experimental data taken from publication PMC8752738, “A propolis-derived small molecule ameliorates metabolic syndrome in obese mice by targeting the CREB/CRTC2 transcriptional complex” (Nature Communications, 2022).
Where “and” joins values, the source holds several entries; their conditions need not be identical. Equal entries are not always repeated.

Assay: Glucose, insulin, and pyruvate tolerance tests
Type: in vivo, mouse
Design: AUC of IGTT, Total Area / AUC analysis of ITT, Total Area / AUC of ITT, group mean / AUC of PTT, group mean / IGTT, Mean Diff. APC - VEH / IGTT, group mean (Mean 1, APC): unit not given beside the values
Settings: for blood glucose, PTT in DIO, group mean / blood glucose, IGTT, mean / ITT, group mean: N=7; for blood glucose: OGTT in db/db; for IGTT, group mean (Mean 1, APC): n=8
Method: After overnight fasting, mice were i.p. injected or treated orally with D-glucose (1–2 g/kg) for glucose-tolerance tests (IGTT or OGTT) or injecting with sodium pyruvate (1–2 g/kg) for pyruvate tolerance tests (PTT). Insulin-tolerance tests (ITT) were performed by i.p. injection of insulin (1 U/kg) 2-h after food removal. […]

[1] = DIO and db/db mice, i.p. 20 mg/kg, 5 weeks

CC(C)=CCc1cc(C=CC(=O)O)cc(CC=C(C)C)c1O [APC, 3,5-diprenyl-4-hydroxycinnamic acid]
capability for gluconeogenesis (PTT) [1]: significantly inhibited | whole-body insulin sensitivity (GTT and ITT) [1]: greatly enhanced | blood glucose, PTT in DIO, group mean (DIO mice, 0 mins of PTT, mean of APC group): 98.23 mg/dL | blood glucose, PTT in DIO (DIO mice, 0 mins of PTT, single animals, n=7): 79.2 mg/dL and 84.6 mg/dL and 104.4 mg/dL and 95.4 mg/dL and 124.2 mg/dL and 122.4 mg/dL and 77.4 mg/dL | blood glucose, PTT in DIO, group mean (DIO mice, 15 mins of PTT, mean of APC group): 148.9 mg/dL | blood glucose, PTT in DIO (DIO mice, 15 mins of PTT, single animals, n=7): 135 mg/dl and 153 mg/dl and 190.8 mg/dl and 156.6 mg/dl (2×) and 127.8 mg/dl and 122.4 mg/dl | blood glucose, PTT in DIO, group mean (DIO mice, 30 mins of PTT, mean of APC group): 191.6 mg/dL | blood glucose, PTT in DIO (DIO mice, 30 mins of PTT, single animals, n=7): 160.2 mg/dL and 192.6 mg/dL and 210.6 mg/dL and 185.4 mg/dL and 230.4 mg/dL and 187.2 mg/dL and 174.6 mg/dL | blood glucose, PTT in DIO, group mean (DIO mice, 60 mins of PTT, mean of APC group): 174.9 mg/dL | blood glucose, PTT in DIO (DIO mice, 60 mins of PTT, single animals, n=7): 129.6 mg/dL and 163.8 mg/dL and 210.6 mg/dL and 156.6 mg/dL and 248.4 mg/dL and 176.4 mg/dL and 138.6 mg/dL | blood glucose, PTT in DIO, group mean (DIO mice, 120 mins of PTT, mean of APC group): 133.2 mg/dL | blood glucose, PTT in DIO (DIO mice, 120 mins of PTT, single animals, n=7): 93.6 mg/dl and 126 mg/dl (2×) and 165.6 mg/dl and 178.2 mg/dl and 120.6 mg/dl and 122.4 mg/dl | blood glucose, PTT in DIO, mean over all time points (DIO mice, Mean of APC, two-way RM ANOVA): 149.3 mg/dL | AUC of PTT, group mean (DIO mice, mean of APC group, n=7): 631 | Total Area of PTT (AUC analysis of PTT) (DIO mice, single animals, n=7): 511.2 and 614.7 and 747 and 609.3 and 757.8 and 641.7 and 535.5 | blood glucose, IGTT, mean (Figure 8f, IGTT in DIO, 0 mins, group mean, VEH 112.9): 93.09 mg/dL | blood glucose, IGTT (Figure 8f, IGTT in DIO, 0 mins, individual mice): 109.80 mg/dl (2×) and 84.60 mg/dl (2×) and 72.00 mg/dl and 97.20 mg/dl and 93.60 mg/dl | blood glucose, IGTT, mean (Figure 8f, IGTT in DIO, 15 mins, group mean, VEH 362.1): 364.4 mg/dL | blood glucose, IGTT (Figure 8f, IGTT in DIO, 15 mins, individual mice): 243.00 mg/dL and 401.40 mg/dL and 361.80 mg/dL and 469.80 mg/dL and 279.00 mg/dL and 376.20 mg/dL and 419.40 mg/dL | blood glucose, IGTT, mean (Figure 8f, IGTT in DIO, 30 mins, group mean, VEH 448.5): 358.7 mg/dL | blood glucose, IGTT (Figure 8f, IGTT in DIO, 30 mins, individual mice): 198.00 mg/dL and 376.20 mg/dL and 453.60 mg/dL and 383.40 mg/dL and 358.20 mg/dL and 468.00 mg/dL and 273.60 mg/dL | blood glucose, IGTT, mean (Figure 8f, IGTT in DIO, 60 mins, group mean, VEH 351.8): 257.9 mg/dL | blood glucose, IGTT (Figure 8f, IGTT in DIO, 60 mins, individual mice): 171.00 mg/dL and 248.40 mg/dL and 298.80 mg/dL and 241.20 mg/dL and 307.80 mg/dL and 372.60 mg/dL and 165.60 mg/dL | blood glucose, IGTT, mean (Figure 8f, IGTT in DIO, 100 mins, group mean, VEH 222.7): 157.1 mg/dL | blood glucose, IGTT (Figure 8f, IGTT in DIO, 100 mins, individual mice): 140.40 mg/dL and 131.40 mg/dL and 176.40 mg/dL and 138.60 mg/dL and 207.00 mg/dL and 190.80 mg/dL and 115.20 mg/dL | AUC of IGTT, Total Area (Figure 8f, IGTT in DIO, individual mice): 737.1 and 1134 and 1257 and 1200 and 1097 and 1359 and 958.5 | blood glucose, ITT (Figure 8g, ITT in DIO, 0 mins, individual mice): 163.8 mg/dl (2×) and 151.2 mg/dl and 124.2 mg/dl and 156.6 mg/dl (2×) and 160.2 mg/dl | blood glucose, ITT (Figure 8g, ITT in DIO, 15 mins, individual mice): 91.8 mg/dL and 75.6 mg/dL and 79.2 mg/dL and 93.6 mg/dL and 97.2 mg/dL and 77.4 mg/dL and 108 mg/dL | blood glucose, ITT (Figure 8g, ITT in DIO, 30 mins, individual mice): 88.2 mg/dl (2×) and 73.8 mg/dl and 93.6 mg/dl and 82.8 mg/dl and 68.4 mg/dl and 86.4 mg/dl | blood glucose, ITT (Figure 8g, ITT in DIO, 60 mins, individual mice): 75.6 mg/dL and 88.2 mg/dL and 79.2 mg/dL and 93.6 mg/dL and 81 mg/dL and 61.2 mg/dL and 52.2 mg/dL | blood glucose, ITT (Figure 8g, ITT in DIO, 100 mins, individual mice): 86.4 mg/dl (2×) and 124.2 mg/dl and 75.6 mg/dl and 88.2 mg/dl (2×) and 50.4 mg/dl | AUC analysis of ITT, Total Area (Figure 8g, ITT in DIO, individual mice): 380.7 and 389.7 and 337.5 and 396.9 and 383.4 and 333 and 351.9 | blood glucose (Figure 9g, Time 0.0 mins, single animals): 320.4 mg/dL and 340.2 mg/dL and 352.8 mg/dL and 234.0 mg/dL and 396.0 mg/dL | blood glucose (Figure 9g, Time 30.0 mins, single animals): 345.6 mg/dL and 576.0 mg/dL and 259.2 mg/dL and 268.2 mg/dL and 599.4 mg/dL | blood glucose (Figure 9g, Time 60.0 mins, single animals): 334.8 mg/dL and 468.0 mg/dL and 158.4 mg/dL and 194.4 mg/dL and 502.2 mg/dL | blood glucose (Figure 9g, Time 90.0 mins, single animals): 268.2 mg/dL and 486.0 mg/dL and 162.0 mg/dL and 203.4 mg/dL and 419.4 mg/dL | AUC of OGTT, mean (Figure 9g, db/db, group mean, n 5): 1059 | AUC of OGTT (Figure 9g, db/db, single animals): 974.7 and 1457 and 675 and 681.3 and 1509 | OGTT in db/db, column mean of blood glucose (Figure 9g, mean over all time points and animals, N 20): 344.4 mg/dL | ITT, group mean (0 min, mean of APC group): 153.8 | ITT, group mean (15 min, mean of APC group): 88.97 | ITT, group mean (30 min, mean of APC group): 83.06 | ITT, group mean (60 min, mean of APC group): 75.86 | ITT, group mean (100 min, mean of APC group): 85.63 | AUC of IGTT in db/db, difference between means (APC - VEH) ± SEM (db/db mice): -383.6 ± 97.97 | IGTT, Mean Diff. APC - VEH (db/db mice, 0 min): -33.3 | IGTT, group mean (Mean 1, APC) (db/db mice, 0 min): 142 | IGTT, Mean Diff. APC - VEH (db/db mice, 15 min): -2.925 | IGTT, group mean (Mean 1, APC) (db/db mice, 15 min): 441.9 | IGTT, Mean Diff. APC - VEH (db/db mice, 30 min): -145.1 | IGTT, group mean (Mean 1, APC) (db/db mice, 30 min): 281
